# Molecular target: T1, XIAP (Homo sapiens, UniProt P98170)
# T1 construct: GST
# Assay: Disruption of the Smac peptide-(XIAP)BIR3 protein-protein interaction (Tables 2 and 3)
# Type: binding
# Conditions: Series A compounds, Table 2; read-out: XIAP IC50
# Method in brief: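 Compounds compete with immobilized Smac peptide for the XIAP BIR3 pocket. Percent inhibition at 4 concentrations (usually 3- or 10-fold series from 10 μM); IC50 by logarithmic regression, normalized to an average reference-inhibitor IC50.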
# T1 sequence (P98170 248-358 limits assumed, species assumed): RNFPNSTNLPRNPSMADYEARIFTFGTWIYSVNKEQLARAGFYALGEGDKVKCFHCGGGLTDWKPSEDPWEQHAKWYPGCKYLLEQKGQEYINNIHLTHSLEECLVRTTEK
row,Structure (SMILES),IC50
1,"CN[C@@H](C)C(=O)N[C@H](C(=O)N1CCN(C(=O)Nc2ccccc2)C[C@H]1C(=O)NC1CCCc2ccccc21)C(C)C (stereo partly drawn) [Compound 41, (S)-4-[(S)-3-Methyl-2-((S)-2-methylamino-propionylamino)-butyryl]-piperazine-1,3-dicarboxylic acid 1-phenylamide 3-[(1,2,3,4-tetrahydro-naphthalen-1-yl)-amide]]",< 10 µM
2,"CN[C@@H](C)C(=O)N[C@H](C(=O)N1CCN(C(=O)OCC(C)C)C[C@H]1C(=O)NC1CCCc2ccccc21)C(C)C (stereo partly drawn) [Compound 31, (S)-4-[(S)-3-Methyl-2-((S)-2-methylamino-propionylamino)-butyryl]-3-(1,2,3,4-tetrahydro-naphthalen-1-ylcarbamoyl)-piperazine-1-carboxylic acid isobutyl ester]",< 10 µM
3,"CN[C@@H](C)C(=O)N[C@H](C(=O)N1CCN(Cc2ccc(OC(F)(F)F)cc2)C[C@H]1C(=O)NC1CCCc2ccccc21)C(C)C (stereo partly drawn) [Compound 23, (S)-1-[(S)-3-Methyl-2-((S)-2-methylamino-propionylamino)-butyryl]-4-(4-trifluoromethoxy-benzyl)-piperazine-2-carboxylic acid (1,2,3,4-tetrahydro-naphthalen-1-yl)-amide]",< 10 µM
4,"CN[C@@H](C)C(=O)N[C@H](C(=O)N1CCN(Cc2ccc(C(F)(F)F)cc2)C[C@H]1C(=O)NC1CCCc2ccccc21)C(C)C (stereo partly drawn) [Compound 12, (S)-1-[(S)-3-Methyl-2-((S)-2-methylamino-propionylamino)-butyryl]-4-(4-trifluoromethyl-benzyl)-piperazine-2-carboxylic acid (1,2,3,4-tetrahydro-naphthalen-1-yl)-amide]",< 10 µM
5,"CN[C@@H](C)C(=O)N[C@H](C(=O)N1CCN(C(=O)NC2CCCC2)C[C@H]1C(=O)NC1CCCc2ccccc21)C(C)C (stereo partly drawn) [Compound 28, (S)-4-[(S)-3-Methyl-2-((S)-2-methylamino-propionylamino)-butyryl]-piperazine-1,3-dicarboxylic acid 1-cyclopentylamide 3-[(1,2,3,4-tetrahydro-naphthalen-1-yl)-amide]]",< 10 µM

# Same assay, conditions: Series B compounds, Table 3; read-out: XIXP IC50
row,Structure (SMILES),IC50
1,"CN[C@@H](C)C(=O)N[C@H](C(=O)N1CCN(Cc2ccccc2)C[C@H]1C(=O)NCC1CCCCC1)C(C)C [Compound 79, (S)-4-Benzyl-1-[(S)-3-methyl-2-((S)-2-methylamino-propionylamino)-butyryl]-piperazine-2-carboxylic acid cyclohexylmethyl-amide]",< 10 µM
2,"CN[C@@H](C)C(=O)N[C@H](C(=O)N1CCN(Cc2ccccc2)C[C@H]1C(=O)NC1c2ccccc2-c2ccccc21)C(C)C [Compound 75, (S)-4-Benzyl-1-[(S)-3-methyl-2-((S)-2-methylamino-propionylamino)-butyryl]-piperazine-2-carboxylic acid (9H-fluoren-9-yl)-amide]",< 10 µM
3,"CN[C@@H](C)C(=O)N[C@H](C(=O)N1CCN(Cc2ccccc2)C[C@H]1C(=O)NC1CCc2ccccc2C1)C(C)C (stereo partly drawn) [Compound 74, (S)-4-Benzyl-1-[(S)-3-methyl-2-((S)-2-methylamino-propionylamino)-butyryl]-piperazine-2-carboxylic acid (1,2,3,4-tetrahydro-naphthalen-2-yl)-amide]",< 10 µM
4,"CN[C@@H](C)C(=O)N[C@H](C(=O)N1CCN(Cc2ccccc2)C[C@H]1C(=O)N[C@H](C)c1ccccc1)C(C)C [Compound 87, (S)-4-Benzyl-1-[(S)-3-methyl-2-((S)-2-methylamino-propionylamino)-butyryl]-piperazine-2-carboxylic acid ((R)-1-phenyl-ethyl)-amide]",< 10 µM
5,"CN[C@@H](C)C(=O)N[C@H](C(=O)N1CCN(Cc2ccccc2)C[C@H]1C(=O)NC1Cc2ccccc2C1)C(C)C [Compound 78, (S)-4-Benzyl-1-[(S)-3-methyl-2-((S)-2-methylamino-propionylamino)-butyryl]-piperazine-2-carboxylic acid indan-2-ylamide]",< 10 µM

# Source: patent publication US7932255B2, “2-aminocarbonyl substituted piperazine or diaza-cyclic compounds as apoptosis protein inhibitors (lap) modulators” (Novartis AG, priority 2006, dated 2011)
